Values joined by “and” are separate entries in the source; they are usually repeats but may differ in a detail not shown here. Equal values may be shown once. Read-outs that look alike come from different tables or passages of the source.
Experiments:
Format in all cases: cell-based
[1] = system: microglia; test: Ranking of NO release inhibition (Example 12); settings: Microglia, ranking table
Excerpt: The bis- and tris-dihydroxyaryl compounds were ranked in order of effectiveness for the inhibition of NO release as set out in Table 8.

[2] = system: EOC 13.31 microglia cells; test: NO release inhibition in LPS/IFNγ stimulated microglia, concurrent treatment, Griess reaction at 24 hours (Example 6); settings: 24 hours; for NO release, Avg: 50 μM; for inhibition at 50 µM: Microglia
Procedure: The purpose of this experiment was to screen compounds 3, 4, 21, 26, 51, 52, 66, and 78 for their ability to inhibit Nitric oxide release from microglia. […] EOC 13.31 microglia cells were plated into 96 well plates for 24 hours. Confluent cells were treated with 50 μM of the bis- and tris-dihydroxyaryl compounds either with or without stimulation at 1 pg/ml LPS, and 1 ng/ml IFNγ. NO release was measured at 24 hours using the Griess reaction which is a spectrophotometric measure of NO release (reagents from Promega).

[3] = system: EOC 13.31 microglia cells; test: Inhibition of NO release from microglia following 24 hours pretreatment (Example 10); settings: 50 uM pretreatment 24 hours, then LPS/IFNγ 48 hours; for inhibition at 50 µM: Microglia
Procedure: This experiment was designed to determine if pretreatment for 24 hours with bis- and tris-dihydroxyaryl compounds changes NO inhibition previously observed with concurrent exposure of bis- and tris-dihydroxyaryl compounds. […] This study seeks to determine if pretreatment with bis- and tris-dihydroxyaryl compounds increases NO release inhibition. EOC 13.31 microglia cells were plated at 1×10^6 cells/ml in 96 well plates. After 48 hours, confluent cells were exposed to 50 μM compound (stock 10 mM in DMSO) prepared in fresh cell culture media. After 24 hours, 10 μg/ml LPS and 10 ng/ml IFNγ was added to wells directly without a media change. Cells were incubated for a further 48 hours and nitric oxide release was measured using the Griess Reaction.

[4] = system: Microglial cells; test: Dose response inhibition of NO release from microglia, 0.5-500 μM (Example 9); settings: for μM NO release / μM NO release (No LPS average subtracted): 3 replicates
Procedure: This experiment was designed to determine the dose response inhibition of NO release from microglia by bis- and tris-dihydroxyaryl compounds when stimulated with LPS/IFNγ. Earlier experiments have demonostrated that some bis- and tris-dihydroxyaryl compounds are good inhibitors of NO release from microglia. This experiment is designed to determine a dose response for various effective bis- and tris-dihydroxyaryl compounds. Microglial cells were plated into 96 well plates at 1×10^5 cells/ml. At 48 hours, media was exchanged for media containing 10 ng/ml IFNγ and 10 μg/ml LPS and the following compounds 3, 4, 21, 26 and the positive control L-NAME. The doses tested were: 0.5 μM, 1.0 μM, 5.0 μM, 10 μM, 25 μM, 50 μM, 100 μM, 250 μM, and 500 μM. Nitric oxide release was measured after 48 hours using the Griess reaction.

[5] = system: EOC 13.31 microglial cells; test: NO release inhibition screen in LPS/IFNγ stimulated microglia, Griess reaction at 48 hours (Example 7)
Procedure: In this experiment, additional bis- and tris-dihydroxyaryl compounds were screened for their ability to inhibit nitric oxide release from microglial cells. Microglial cells stimulated with LPS/IFNγ release nitric oxide. […] This is a continuation of screening experiments. EOC 13.31 microglial cells were plated into 96 well plates. At 24 hours and at confluency, cells were treated with 10 μg/ml LPS/10 ng/ml IFNγ+50 uM bis- and tris-dihydroxyaryl compounds.

[6] = system: TNF-α release from microglia; test: TNF-α release from LPS/IFNγ stimulated microglia, TNF-α ELISA (Example 11); settings: 50 uM compound, TNF-α release, 10 ug LPS and 10 ng IFNγ, 24 hours
Procedure: Also, bis- and tris-dihydroxyaryl compound's ability to inhibit NO release strongly supports their interference with the inflammatory cascade and utlimately inhibition of inflammation. Microglia cells were plated at 1×10^5 cells/ml into 96 well plates. At day three, they were treated with 50 μM bis- and tris-dihydroxyaryl compound for 1 hour and then exposed to 10 μg/ml LPS+10 ng/ml IFNγ for 24 hours. 10 μl of media was removed and stored at −80° until TNF-α ELISA assays were performed. Samples were diluted 1:50 before running the TNF-α ELISA (kit commercially available from Sigma).

[7] = Compound Only (without LPS/IFNγ)
[8] = Compound + LPS/IFNγ, read-out: % inhibition of NO release
[9] = Table 2 summary, LPS/IFNγ, read-out: % Inhibition (summary of inhibition of NO release)
[10] = single replicates, read-out: % inhibition
[11] = dose 0.5 μM, LPS/IFNγ, 48 hours
[12] = dose 100 μM, LPS/IFNγ, 48 hours
[13] = dose 250 μM, LPS/IFNγ, 48 hours
[14] = dose 500 μM, LPS/IFNγ, 48 hours

## O=C(CCC(=O)Nc1ccc(O)c(O)c1)Nc1ccc(O)c(O)c1 [Compound 66, succinic acid bis(3,4-dihydroxyanilide)]
[1]
  inhibition at 50 µM: 17%
[2]; Compound + LPS/IFNγ
  NO release, Avg: 15.4762 µM
[2]; [7]
  NO release, Avg: 0.8333 µM
[2]; [8]
  inhibition at 50 µM: 16.9%
[2]; [9]
  inhibition at 50 µM: 16.9%
[3]; single replicates
  % inhibition: 59.20% and 65.21%
[3]; read-out: Avg % Inhibition
  inhibition at 50 µM: 64.3%
[3]; [10]
  inhibition at 50 µM: 68.4%

## O=C(CCC(=O)NCc1ccc(O)c(O)c1)NCc1ccc(O)c(O)c1 [Compound 67, succinic acid bis(3,4-dihydroxybenzylamide)]
[1]
  inhibition at 50 µM: 61%
[4]; Microglia, 48 h, dose 0.5 μM, NO release, LPS/IFNγ, 48 hours, read-out: Avg % Inhibition
  inhibition at 0.5 µM: -2.75%
[4]; Microglia, 48 h, dose 1 μM, NO release, LPS/IFNγ, 48 hours, read-out: Avg % Inhibition
  inhibition at 1 µM: 1.5%
[4]; Microglia, 48 h, dose 5 μM, NO release, LPS/IFNγ
  inhibition at 5 µM: -0.75%
[4]; Microglia, 48 h, dose 10 μM, NO release, LPS/IFNγ
  inhibition at 10 µM: -12.7%
[4]; Microglia, 48 h, dose 25 μM, NO release, LPS/IFNγ
  inhibition at 25 µM: -5.5%
[4]; Microglia, 48 h, dose 50 μM, NO release, LPS/IFNγ
  inhibition at 50 µM: -9.24%
[4]; Microglia, 48 h, dose 100 μM, NO release, LPS/IFNγ, 48 hours, read-out: Avg % Inhibition
  inhibition at 100 µM: 16%
[4]; Microglia, 48 h, dose 250 μM, NO release, LPS/IFNγ, 48 hours, read-out: Avg % Inhibition
  inhibition at 250 µM: 44.4%
[4]; Microglia, 48 h, dose 250 μM, individual replicates, NO release, LPS/IFNγ, 48 hours, read-out: % inhibition
  inhibition at 250 µM: 45.3%
[4]; Microglia, 48 h, dose 500 μM, NO release, LPS/IFNγ, 48 hours, read-out: Avg % Inhibition
  inhibition at 500 µM: 76.9%
[4]; Microglia, 48 h, dose 500 μM, individual replicates, NO release, LPS/IFNγ, 48 hours, read-out: % inhibition
  inhibition at 500 µM: 75.5%
[4]; Microglia, 48 h, highest concentration tested (500 μM), 48 hours, read-out: inhibited NO release by
  inhibition at 500 µM: 76%
[4]; [11]
  μM NO release: 21.528 µM and 20.278 µM and 20.417 µM
  μM NO release (No LPS average subtracted): 19.83 µM and 18.58 µM and 18.72 µM
[4]; dose 0.5 μM, individual replicates, NO release, LPS/IFNγ, 48 hours
  % inhibition: −7.00% and −0.25% and −1.00%
[4]; dose 1 μM, LPS/IFNγ, 48 hours
  μM NO release: 21.528 µM and 19.306 µM and 19.028 µM
  μM NO release (No LPS average subtracted): 19.83 µM and 17.61 µM and 17.33 µM
[4]; dose 1 μM, individual replicates, NO release, LPS/IFNγ, 48 hours
  % inhibition: −7.00% and 5.00% and 6.50%
[4]; dose 5 μM, LPS/IFNγ, 48 hours
  μM NO release: 21.389 µM and 19.583 µM and 20.139 µM
  μM NO release (No LPS average subtracted): 19.69 µM and 17.88 µM and 18.44 µM
[4]; dose 5 μM, individual replicates, NO release, LPS/IFNγ, 48 hours
  % inhibition: −6.25% and 3.50% and 0.50%
[4]; dose 10 μM, LPS/IFNγ, 48 hours
  μM NO release: 22.917 µM and 22.083 µM and 22.778 µM
  μM NO release (No LPS average subtracted): 21.22 µM and 20.38 µM and 21.08 µM
[4]; dose 10 μM, individual replicates, NO release, LPS/IFNγ, 48 hours
  % inhibition: −14.49% and −9.99% and −13.74%
[4]; dose 25 μM, LPS/IFNγ, 48 hours
  μM NO release: 21.944 µM and 20.556 µM and 21.250 µM
  μM NO release (No LPS average subtracted): 20.24 µM and 18.86 µM and 19.55 µM
[4]; dose 25 μM, individual replicates, NO release, LPS/IFNγ, 48 hours
  % inhibition: −1.75%
[4]; dose 50 μM, LPS/IFNγ, 48 hours
  μM NO release: 22.639 µM and 21.111 µM and 22.083 µM
  μM NO release (No LPS average subtracted): 20.94 µM and 19.41 µM and 20.38 µM
[4]; dose 50 μM, individual replicates, NO release, LPS/IFNγ, 48 hours
  % inhibition: −12.99% and −4.75% and −9.99%
[4]; [12]
  μM NO release: 17.917 µM and 14.583 µM and 19.306 µM
  μM NO release (No LPS average subtracted): 16.22 µM and 12.88 µM and 17.61 µM
[4]; dose 100 μM, individual replicates, NO release, LPS/IFNγ, 48 hours
  % inhibition: 12.49% and 30.48% and 5.00%
[4]; [13]
  μM NO release: 11.835 μM (2×) and 12.367 μM
  μM NO release (No LPS average subtracted): 10.14 μM (2×) and 10.67 μM
[4]; dose 250 μM, individual replicates, NO release, LPS/IFNγ, 48 hours
  % inhibition: 42.44%
[4]; [14]
  μM NO release: 6.250 µM and 5.707 µM and 5.978 µM
  μM NO release (No LPS average subtracted): 4.55 µM and 4.01 µM and 4.28 µM
[4]; dose 500 μM, individual replicates, NO release, LPS/IFNγ, 48 hours
  % inhibition: 78.38%
[5]; 50 uM + 10 μg/ml LPS/10 ng/ml IFNγ, 48 hours
  μM NO release Avg: 10.579 µM
[5]; 50 uM + 10 μg/ml LPS/10 ng/ml IFNγ, 48 hours, single replicates, 50 µM
  % inhibition: 44.82% and 72.72% and 65.01%
[5]; 50 uM, LPS/IFNγ stimulated microglia
  inhibition of NO release, in words: effective inhibitors of NO release
[5]; Microglia, 48 h, 50 uM + 10 μg/ml LPS/10 ng/ml IFNγ, 48 hours, read-out: Avg. % Inhibition
  inhibition at 50 µM: 60.9%
[6]; individual replicates, 50 µM
  % inhibition: −27.48% and −14.06% and −17.41%
[6]; Microglia, 24 h, read-out: Avg % Inhibition
  inhibition at 50 µM: -19.6%
[3]; single replicates
  % inhibition: 58.88% and 67.74%
[3]; read-out: Avg % Inhibition
  inhibition at 50 µM: 65.6%
[3]; [10]
  inhibition at 50 µM: 70.3%

## O=C(NCCc1ccc(O)c(O)c1)Nc1ccc(O)c(O)c1 [Compound 78, 1-(3,4-dihydroxyphenyl)-3-(3,4-dihydroxyphenethyl)urea]
[1]
  inhibition at 50 µM: -1%
[2]; Compound + LPS/IFNγ
  NO release, Avg: 18.7925 µM
[2]; [7]
  NO release, Avg: 1.1667 µM
[2]; [8]
  inhibition at 50 µM: -0.9%
[2]; [9]
  inhibition at 50 µM: -0.9%
[3]; single replicates
  % inhibition: 57.93% and 69.00%
[3]; read-out: Avg % Inhibition
  inhibition at 50 µM: 65.5%
[3]; [10]
  inhibition at 50 µM: 69.6%

Reference: patent US20070208087A1, “Compounds, compositions and methods for the treatment of inflammatory diseases” (priority 2001, published 2007)
